Laboratory results as given in US8080535B2, “Hyaluronic acid nutritional supplements and methods of using the same” (Leneau Holdings, LLC, priority 2001, dated 2011).

Tests used:
[1] = test system: patients suffering from osteoarthritis; assay: Oral ingestion of hyaluronic acid by patients suffering from osteoarthritis, subjective pain feeling; format: in vivo, human; details: of sixty-seven osteoarthritis patients; 1-4 mg oral 1 to 4 times a day
Method: A study involving sixty-seven patients suffering from osteoarthritis was undertaken to determine the effectiveness of oral ingestion of hyaluronic acid. Each patient received 1-4 mg of hyaluronic acid by oral ingestion administration 1 to 4 times a day over periods ranging from about […], during which period the patients' subjective pain feeling was reported. […] Fourteen patients reported no change in the amount of pain they felt.

[2] = test system: human patients suffering pain and discomfort associated with rheumatoid arthritis; assay: Oral ingestion of hyaluronic acid by patients afflicted with rheumatoid arthritis, subjective pain score 0 to 10; format: in vivo; details: scale 0 to 10; about 1 mg oral solution for 30 days; average prior to the study 8.47; 15 of seventeen patients responded
Method: Another study involving seventeen human patients suffering pain and discomfort associated with rheumatoid arthritis was undertaken. Each patient received about 1 mg of an oral hyaluronic acid solution for a period of 30 days. Each patient was asked to evaluate his or her subjective pain feeling and report the score on a scale of 0 to 10, wherein 0 means no pain and/or stiffness whatsoever and 10 means worst imaginable pain and/or stiffness. Prior to the start of the study, the patients reported as follows: […]

[3] = test system: human patients suffering pain and discomfort associated with fibromyalgia; assay: Oral ingestion of hyaluronic acid by patients afflicted with fibromyalgia, subjective pain feeling; format: in vivo
Method: Another study involving thirty-five human patients suffering pain and discomfort associated with fibromyalgia was undertaken to evaluate the effectiveness of oral ingestion of hyaluronic acid. Each patient received about 1 to about 6 mg of hyaluronic acid by oral ingestion administration of concentrate diluted into beverages or food. Over a treatment period of about 1 to about 14 months, the patients' subjective pain feeling was reported. Twenty-one patients reported no pain after hyaluronic acid therapy. Six patients (17.1%) reported some (60%) degree of pain relief. Eight patients reported no change in the amount of pain they felt.

[4] = of thirty-five fibromyalgia patients, about 1 to about 6 mg oral, about 1 to about 14 months

hyaluronic acid
patients reported no change in the amount of pain [1]: Fourteen | patients reported no pain and increased range of motion [1]: Twenty-nine | patients reported no pain and increased range of motion (percent of patients) [1]: 43.3% | patients reported some degree of pain relief and some increased range of motion [1]: Twenty-four | patients reported some degree of pain relief and some increased range of motion (percent of patients) [1]: 35.8% | average subjective pain and/or stiffness score at completion of the 30-day study [2]: 3.47 | patients reported no change in the amount of pain [3, 4]: Eight | patients reported no pain after hyaluronic acid therapy [3, 4]: Twenty-one | patients reported some degree of pain relief [3, 4]: Six | patients reported some degree of pain relief (percent of patients) [3, 4]: 17.1% | some (60%) degree of pain relief ([3]; printed in brackets in the sentence on the six patients with some pain relief): 60%
